Results from paper PMC9866191, “Novel 9-Benzylaminoacridine Derivatives as Dual Inhibitors of Phosphodiesterase 5 and Topoisomerase II for the Treatment of Colon Cancer” (Molecules, 2023).

Assays:
[1] = tested on: CCD-966SK; test: MTT cell proliferation assay, CCD-966SK; conditions: CCD966SK skin fibroblast; 10 µM; 72 h MTT
[2] = target: T1, PDE5A (Homo sapiens, UniProt O76074); test: Phosphodiesterase 5 HTRF cGMP assay; assay type: biochemical; conditions: for IC50: means ± S.D. (n = 4), read-out: PDE5 IC50; for inhibition at 10 µM: read-out: PDE5 % Inhibition at 10 μM
T1 construct: purchased BPS Bioscience, San Diego, CA, USA
Protocol: All the synthesized acridine derivatives were tested for their in vitro ability to inhibit PDE5A at a screening dose of 10 µM.
The enzyme activities of phosphodiesterase 5 (PDE5) were measured using an HTRF cGMP assay kit (Cisbio, Codolet, France). […] Afterward, the HTRF reagent (cGMP-d2 and anti-cGMP-cryptate) was added for 1 h at 25 °C, and PDE activity was assayed on an HTRF reader (Tecan Infinite F200 Pro).

[3] = tested on: U251; test: NCI-60 one-dose screen; assay type: cell-based; conditions: Homo sapiens, U-251; U251, CNS Cancer panel; single dose 10^−5 M; read-out: Growth inhibition %
Protocol: (§1) The newly synthesized compounds were screened for their in vitro anticancer activity at the Developmental Therapeutic Program (DTP) of the National Cancer Institute (NCI). The screening involved a panel of 60 human tumor cell lines consisting of 9 tissue types to screen for potential anti-cancer agents. The primary screening of submitted compounds was performed by testing a single dose (10^−5 M) in the full NCI-60 panel. The detailed % inhibition by the tested compounds against the 60 cell lines is shown in Tables S1–S3 in the Supporting Information.

[4] = tested on: NCI-H226; test: NCI-60 one-dose screen; assay type: cell-based; conditions: Homo sapiens; NCI-H226, Non-small cell lung panel; single dose 10^−5 M; read-out: Growth inhibition %
Protocol: as §1

[5] = tested on: UACC-257; test: NCI-60 one-dose screen; assay type: cell-based; conditions: Homo sapiens; UACC-257, Melanoma panel; single dose 10^−5 M; read-out: Growth inhibition %
Protocol: as §1

[6] = tested on: OVCAR-8; test: NCI-60 one-dose screen; assay type: cell-based; conditions: Homo sapiens; OVCAR-8, Ovarian Cancer panel; single dose 10^−5 M; read-out: Growth inhibition %
Protocol: as §1

[7] = tested on: SN12C; test: NCI-60 one-dose screen; assay type: cell-based; conditions: Homo sapiens, Renal Cancer panel, single dose 10^−5 M, read-out: Growth inhibition %
Protocol: as §1

[8] = tested on: OVCAR-3; test: NCI-60 one-dose screen; assay type: cell-based; conditions: Homo sapiens; OVCAR-3, Ovarian Cancer panel; single dose 10^−5 M; read-out: Growth inhibition %
Protocol: as §1

[9] = tested on: SF-539; test: NCI-60 one-dose screen; assay type: cell-based; conditions: Homo sapiens; SF-539, CNS Cancer panel; single dose 10^−5 M; read-out: Growth inhibition %
Protocol: as §1

[10] = tested on: RPMI-8226; test: NCI-60 one-dose screen; assay type: cell-based; conditions: Homo sapiens; RPMI-8226, Leukemia panel; single dose 10^−5 M; read-out: Growth inhibition %
Protocol: as §1

[11] = tested on: MDA-MB-468; test: NCI-60 one-dose screen; assay type: cell-based; conditions: Homo sapiens; MDA-MB-468, Breast Cancer panel; single dose 10^−5 M; read-out: Growth inhibition %
Protocol: as §1

[12] = tested on: SK-MEL-2; test: NCI-60 one-dose screen; assay type: cell-based; conditions: Homo sapiens; SK-MEL-2, Melanoma panel; single dose 10^−5 M; read-out: Growth inhibition %
Protocol: as §1

[13] = tested on: RXF 393; test: NCI-60 one-dose screen; assay type: cell-based; conditions: Homo sapiens; RXF 393, Renal Cancer panel; single dose 10^−5 M; read-out: Growth inhibition %
Protocol: as §1

[14] = tested on: UACC-62; test: NCI-60 one-dose screen; assay type: cell-based; conditions: Homo sapiens; UACC-62, Melanoma panel; single dose 10^−5 M; read-out: Growth inhibition %
Protocol: as §1

[15] = tested on: TK-10; test: NCI-60 one-dose screen; assay type: cell-based; conditions: Homo sapiens; TK-10, Renal Cancer panel; single dose 10^−5 M; read-out: Growth inhibition %
Protocol: as §1

[16] = tested on: SW-620; test: NCI-60 one-dose screen; assay type: cell-based; conditions: Homo sapiens; SW-620, Colon Cancer panel; single dose 10^−5 M; read-out: Growth inhibition %
Protocol: as §1

[17] = tested on: NCI-H322M; test: NCI-60 one-dose screen; assay type: cell-based; conditions: Homo sapiens, Non-small cell lung panel, single dose 10^−5 M, read-out: Growth inhibition %
Protocol: as §1

[18] = tested on: MDA-MB-231/ATCC; test: NCI-60 one-dose screen; assay type: cell-based; conditions: Homo sapiens, Breast Cancer panel, single dose 10^−5 M, read-out: Growth inhibition %
Protocol: as §1

[19] = tested on: HCT-116; test: NCI-60 one-dose screen; assay type: cell-based; conditions: Homo sapiens, read-out: Growth inhibition %
Protocol: as §1

[20] = tested on: A549/ATCC; test: NCI-60 one-dose screen; assay type: cell-based; conditions: Homo sapiens, Non-small cell lung panel, single dose 10^−5 M, read-out: Growth inhibition %
Protocol: as §1

[21] = tested on: HS 578T; test: NCI-60 one-dose screen; assay type: cell-based; conditions: Homo sapiens, Breast Cancer panel, single dose 10^−5 M, read-out: Growth inhibition %
Protocol: as §1

[22] = tested on: UO-31; test: NCI-60 one-dose screen; assay type: cell-based; conditions: Homo sapiens; UO-31, Renal Cancer panel; single dose 10^−5 M; read-out: Growth inhibition %
Protocol: as §1

[23] = tested on: COLO 205; test: NCI-60 one-dose screen; assay type: cell-based; conditions: Homo sapiens; COLO 205, Colon Cancer panel; single dose 10^−5 M; read-out: Growth inhibition %
Protocol: as §1

[24] = tested on: HOP-62; test: NCI-60 one-dose screen; assay type: cell-based; conditions: Homo sapiens; HOP-62, Non-small cell lung panel; single dose 10^−5 M; read-out: Growth inhibition %
Protocol: as §1

[25] = tested on: K-562; test: NCI-60 one-dose screen; assay type: cell-based; conditions: Homo sapiens, K562; K-562, Leukemia panel; single dose 10^−5 M; read-out: Growth inhibition %
Protocol: as §1

[26] = tested on: KM12; test: NCI-60 one-dose screen; assay type: cell-based; conditions: Homo sapiens; KM12, Colon Cancer panel; single dose 10^−5 M; read-out: Growth inhibition %
Protocol: as §1

[27] = tested on: HCC-2998; test: NCI-60 one-dose screen; assay type: cell-based; conditions: Homo sapiens; HCC-2998, Colon Cancer panel; single dose 10^−5 M; read-out: Growth inhibition %
Protocol: as §1

[28] = tested on: SNB-19; test: NCI-60 one-dose screen; assay type: cell-based; conditions: Homo sapiens; SNB-19, CNS Cancer panel; single dose 10^−5 M; read-out: Growth inhibition %
Protocol: as §1

[29] = tested on: MALME-3M; test: NCI-60 one-dose screen; assay type: cell-based; conditions: Homo sapiens, Melanoma panel, single dose 10^−5 M, read-out: Growth inhibition %
Protocol: as §1

[30] = tested on: LOX IMVI; test: NCI-60 one-dose screen; assay type: cell-based; conditions: Homo sapiens, Melanoma panel, single dose 10^−5 M, read-out: Growth inhibition %

| Structure (SMILES) | % Inhibition at 10 µM [1] | IC50 [2] | inhibition at 10 µM [2] | inhibition at 10 µM [3] | inhibition at 10 µM [4] | inhibition at 10 µM [5] | inhibition at 10 µM [6] | inhibition at 10 µM [7] | inhibition at 10 µM [8] | inhibition at 10 µM [9] | inhibition at 10 µM [10] | inhibition at 10 µM [11] | inhibition at 10 µM [12] | inhibition at 10 µM [13] | inhibition at 10 µM [14] | inhibition at 10 µM [15] | inhibition at 10 µM [16] | inhibition at 10 µM [17] | inhibition at 10 µM [18] | inhibition at 10 µM [19] | also measured |
| --- | --- | --- | --- | --- | --- | --- | --- | --- | --- | --- | --- | --- | --- | --- | --- | --- | --- | --- | --- | --- | --- |
| c1coc(CNc2c3ccccc3nc3ccccc23)c1 [Compound 14, Acridin-9-yl-furan-2-ylmethyl-amine] | 33.89 ± 0.85% | 7.43 ± 2.69 µM | 56.5 ± 7.38% | 34.9% | 37.1% | 18.3% | 52.5% | 46.5% | 3.11% | 34.1% | 43.4% | 70.7% | -1.22% | 38.5% | 33.9% | 11.6% | 57.7% | 35% | 39.5% | 76% | inhibition at 10 µM [20]: 38.1%; inhibition at 10 µM [21]: 16%; inhibition at 10 µM [22]: 60.5%; inhibition at 10 µM [23]: 64.8%; inhibition at 10 µM [24]: 30.4%; inhibition at 10 µM [25]: 55.3%; inhibition at 10 µM [26]: 14.5%; inhibition at 10 µM [27]: 31.1%; inhibition at 10 µM [28]: 37.2%; inhibition at 10 µM [29]: 9.63%; inhibition at 10 µM [30]: 62.9% |
| COc1cccc(CNc2c3ccccc3nc3ccccc23)c1OC [Compound 16, Acridin-9-yl-(2,3-dimethoxybenzyl)-amine] | 29.78 ± 2.20% | > 10 µM | 36.7 ± 8.14% | 65.5% | 48.4% | 45.2% | 60.8% | 69.1% | 34.9% | 81.1% | 83% | 98.9% | 20.8% | 70.1% | 48.7% | 40.5% | 74.6% | 58.4% | 58.1% | 88.2% | inhibition at 10 µM [20]: 69.7%; inhibition at 10 µM [21]: 35.7%; inhibition at 10 µM [22]: 74.8%; inhibition at 10 µM [23]: 78.5%; inhibition at 10 µM [24]: 48.8%; inhibition at 10 µM [25]: 84.5%; inhibition at 10 µM [26]: 47.6%; inhibition at 10 µM [27]: 61.7%; inhibition at 10 µM [28]: 64.5%; inhibition at 10 µM [29]: 49.4%; inhibition at 10 µM [30]: 87% |
| COc1ccc(CNc2c3ccccc3nc3ccccc23)c(OC)c1 [Compound 17, Acridin-9-yl-(2,4-dimethoxybenzyl)-amine] | 35.11 ± 0.42% | 6.77 ± 1.31 µM | 60.2 ± 5.89% | 58.2% | 53.7% | 25.4% | 62.2% | 69% | 30.8% | 85.4% | 65.1% | 95.2% | 5.98% | 66.6% | 45.5% | 45.6% | 79.3% | 60% | 56.4% | 87.2% | inhibition at 10 µM [20]: 64.8%; inhibition at 10 µM [21]: 31.1%; inhibition at 10 µM [22]: 72%; inhibition at 10 µM [23]: 75.4%; inhibition at 10 µM [24]: 52.8%; inhibition at 10 µM [25]: 86.8%; inhibition at 10 µM [26]: 45.7%; inhibition at 10 µM [27]: 64.4%; inhibition at 10 µM [28]: 66.5%; inhibition at 10 µM [29]: 33%; inhibition at 10 µM [30]: 82.3% |
| COc1ccc(CNc2c3ccccc3nc3ccccc23)cc1OC [Compound 18, Acridin-9-yl-(3,4-dimethoxybenzyl)-amine] | 32.27 ± 0.58% | 9.77 ± 3.11 µM | 51.2 ± 5.26% | 76.8% | 72% | 77.9% | 76.2% | 77.5% | 56.3% | 84.7% | 99.4% | 123% | 61.4% | 96.4% | 73.2% | 67.7% | 84% | 70.2% | 80.6% | 87.8% | inhibition at 10 µM [20]: 83.7%; inhibition at 10 µM [21]: 62.8%; inhibition at 10 µM [22]: 87.9%; inhibition at 10 µM [23]: 94.7%; inhibition at 10 µM [24]: 65.5%; inhibition at 10 µM [25]: 91.2%; inhibition at 10 µM [26]: 68.4%; inhibition at 10 µM [27]: 69.9%; inhibition at 10 µM [28]: 78.2%; inhibition at 10 µM [29]: 92.1%; inhibition at 10 µM [30]: 104% |
| COc1ccc(CNc2c3ccccc3nc3ccccc23)cc1F [Compound 19, Acridin-9-yl-(3-fluoro-4-methoxybenzyl)-amine] | 41.77 ± 0.99% | 3.39 ± 1.03 µM | 79.2 ± 8.48% | 73.1% | 57% | 62.2% | 70.6% | 74.1% | 47.8% | 81.8% | 106% | 119% | 54.9% | 88.9% | 57.5% | 63.9% | 83.4% | 68.3% | 70.8% | 87.7% | inhibition at 10 µM [20]: 77.2%; inhibition at 10 µM [21]: 54.5%; inhibition at 10 µM [22]: 86.5%; inhibition at 10 µM [23]: 91.3%; inhibition at 10 µM [24]: 55.5%; inhibition at 10 µM [25]: 95.2%; inhibition at 10 µM [26]: 67.2%; inhibition at 10 µM [27]: 94.2%; inhibition at 10 µM [28]: 72%; inhibition at 10 µM [29]: 76.4%; inhibition at 10 µM [30]: 98.8% |
